Test results published in patent US11135202B2, “Thiazolide compounds for treating viral infections” (Romark Laboratories L.C., priority 2016, dated 2021).
In brackets after ≈: the same amount, converted by molar mass.

How the values were obtained:
[1] = system: RSV-A2; experiment: RSV-A2 yield in infected HeLa cells (virus-induced syncytia counted by immunofluorescence); format: cell-based
[2] = system: Sendai virus (SeV); experiment: SeV virus yield in AGMK cells (HA titration, plaque assay; MTT viability; cytopathic effect); format: cell-based
[3] = system: Sendai virus (SeV); format: cell-based
[4] = system: respiratory syncytial virus; experiment: Study RM08-3002 clinical trial, time to alleviation of symptoms, RSV patients; settings: human, in vivo

CC(=O)Oc1ccccc1C(=O)Nc1ncc([N+](=O)[O-])s1 [nitazoxanide]
IC50 ([1]; human respiratory syncytial virus, HeLa cells, MOI 1 TCID50/cell, syncytia at 48 hours p.i., non cytotoxic doses, read-out: IC50, antiviral activity against RSV-A2): 0.3 µg/mL (≈ 0.976 µM)
IC90 ([1]; human respiratory syncytial virus, HeLa cells, MOI 1 TCID50/cell, syncytia at 48 hours p.i., non cytotoxic doses, read-out: IC90, antiviral activity against RSV-A2): 0.8 µg/mL (≈ 2.6 µM)
effect of treatment against RSV ([1]; in vitro): effective against RSV
protection of infected cells from virus-induced damage ([2]; SeV 3 PFU/cell, 10 μg/ml, 24 h p.i.): cytoprotective
inhibition of SeV replication ([2]; at concentrations non-toxic for the host cells): effective
inhibition of SeV in A549 cells [3]: also effective
reduction in duration of symptoms at the median vs placebo [4]: 76 h
